Measurements reported in article PMC8592230 (Food Chemistry, 2021).

Tests used:
SARS-CoV-2 3CL^pro [1] = target: T1, SARS-CoV-2 3CL^pro (Severe acute respiratory syndrome coronavirus 2, UniProt P0DTD1); experiment: Initial FRET screening for 3CL^pro inhibition at 10 µM polyphenol; format: biochemical; conditions: 0.1 µM 3CL^pro, 16 µM FRET substrate, after 10 min
SARS-CoV-2 3CL^pro [2] = target: T1, SARS-CoV-2 3CL^pro; experiment: FRET dose-response 3CL^pro inhibition assay; format: biochemical
SARS-CoV-2 3CL^pro [3] = target: T1, SARS-CoV-2 3CL^pro; experiment: Surface plasmon resonance binding to immobilised 3CL^pro

SMILES	inhibition of 3CL^pro (SARS-CoV-2 3CL^pro [1])	IC50 (SARS-CoV-2 3CL^pro [2]) [µM]	SPR binding to immobilised 3CL^pro (in words) (SARS-CoV-2 3CL^pro [3]; SPR, up to 200 µM polyphenol, 25 °C)	Kd (SARS-CoV-2 3CL^pro [3]) [µM]
COc1cc(C(=O)O)cc(OC)c1O [Syringic acid]	no inhibition at all	–	–	–
Oc1ccc(/C=C/c2cc(O)cc(O)c2)cc1 [Resveratrol]	–	16.9	non-specific binding	–
O=c1oc2c(O)c(O)cc3c(=O)oc4c(O)c(O)cc1c4c23 [Ellagic acid]	–	11.8	–	311 ± 69
